Reference: patent US20260008783A1, “MODULATORS OF FSHR AND USES THEREOF” (Celmatix Inc., priority 2022, published 2026)

The molecules below were run against T1, Follicle Stimulating Hormone Receptor (FSHR) (Homo sapiens, UniProt P23945) (assay: HTRF cAMP agonist assay, FSHR, transiently transfected CHO-K1 cells). Conditions: CHO-K1 cells transiently expressing human FSHR, read-out: IC50 FSHR LANCE CAMP.
T1 construct: HA (N); expressed in transfected cells; host or cells: CHO-K1, transient transfection, pHM6 vector (CMV promoter)
T1 sequence (P23945 18-695): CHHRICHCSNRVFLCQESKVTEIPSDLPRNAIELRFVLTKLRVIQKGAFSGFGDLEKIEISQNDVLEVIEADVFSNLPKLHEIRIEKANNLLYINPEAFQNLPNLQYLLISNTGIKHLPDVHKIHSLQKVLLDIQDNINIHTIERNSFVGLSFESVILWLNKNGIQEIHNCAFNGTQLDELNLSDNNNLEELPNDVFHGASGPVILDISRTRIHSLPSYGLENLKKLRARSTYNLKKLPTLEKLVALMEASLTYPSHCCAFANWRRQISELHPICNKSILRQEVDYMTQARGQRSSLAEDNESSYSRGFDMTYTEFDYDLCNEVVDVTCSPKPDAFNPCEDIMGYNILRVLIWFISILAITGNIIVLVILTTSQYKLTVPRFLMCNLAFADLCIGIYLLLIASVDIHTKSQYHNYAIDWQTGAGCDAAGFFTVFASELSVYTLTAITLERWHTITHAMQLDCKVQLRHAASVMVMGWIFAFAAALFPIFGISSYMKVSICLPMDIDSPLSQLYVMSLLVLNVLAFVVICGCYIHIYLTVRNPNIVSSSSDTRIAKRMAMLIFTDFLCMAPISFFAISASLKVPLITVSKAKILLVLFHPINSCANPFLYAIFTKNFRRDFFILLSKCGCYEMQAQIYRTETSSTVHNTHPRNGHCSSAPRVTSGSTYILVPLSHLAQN
Assay type: cell-based
Text: Example 17. HTRF cAMP Agonist Assay Protocol (for FSHR, TSHR, LHCGR)
Mammalian expression vectors designed to express either Follicle Stimulating Hormone Receptor (FSHR), Thyroid Stimulating Hormone Receptor (TSHR), or Luteinizing Hormone/Choriogonadotropin Receptor (LHCGR), were generated with an HA-tag on the N-terminus. All constructs were expressed under a human cytomegalovirus (CMV) immediate early enhancer and promoter using the pHM6 expression vector. The protein coding region was confirmed by sequence analysis to be in-frame and of the expected sequence, matching the following accession numbers: FSHR NM_000145, TSHR NM_000369, and LHCGR NM_000233.
HTRF cAMP assays were performed using Chinese Hamster Ovary (CHO-K1) cell lines transiently expressing human FSH, TSH, and LHCG receptors. 48 hours before the assay, cells were washed with PBS and then dissociated from tissue culture flasks with 0.25% trypsin. Dissociated cells were quenched in full media (F-12K Medium Corning REF #10-025-CV, 10% Avantor Seradigm FB Essence Cat #10803-034, 1% Penicillin/Streptomycin Cytiva HyClone Cat #SV30010) and then collected by centrifugation at 290×g for 5 min. Cells were resuspended in full media and dispensed into 150 mm cell culture dishes (Nest Scientific Cat #715001), at 2.3×10^6 cells/flask. 7 hours later, cells were transfected using Lipofectamine transfection reagent (Invitrogen Cat #18324020). Briefly, 60 μL of lipofectamine was dispensed into 2 mL of Opti-MEM (Gibco Cat #31985070) and incubated for 5 minutes at room temperature. Then, the mixture was added onto […] of DNA and incubated for another 20 minutes at room temperature. Cells were washed with warm (37° C.) PBS. 17.5 mL of Opti-MEM was dispensed onto the cells, followed by addition of the Opti-MEM/lipofectamine/DNA mixture. Cells were incubated overnight in a 37° C., 5% CO2 cell incubator. 17-19 hours later, Opti-MEM was aspirated off the cells and replaced with full media. Cells were incubated for another 24 hours in a 37° C., 5% CO2 cell incubator.
On the day of the assay, cells were washed with PBS and then dissociated from tissue culture flasks with 0.25% trypsin. Dissociated cells were quenched in full media and then collected by centrifugation at 290×g for 5 min. Cells were resuspended in PBS^+/+ (Corning REF #20-030-CV) to a concentration of 2×10^5 cells/mL. 10 μL/well of cells (2,000 cells/well) were dispensed into 384-well Corning plates (REF #3825), in triplicate. Cells were incubated at room temperature for 2 hours.
Example FSHR Modulator compounds were diluted in assay buffer (PBS^+/+, 0.05% BSA Sigma-Aldrich A3059, 500 μM IBMX Sigma-Aldrich 15879) to 3.5× the final assay concentration. 4 μL of test agonist was added to the cells and incubated for 1 hour at room temperature. 10 μL of cAMP detection reagents (LANCE Ultra cAMP Detection Kit PerkinElmer TRF0264) were dispensed onto the cells and plates were incubated for 2 hours at room temperature (cAMP detection reagents were made according to the PerkinElmer kit protocol). Plates were read on an Envision plate reader following PerkinElmer guidelines.
Raw data for all assays was transmitted directly from plate readers into a database for processing. All assay plates contained both positive and negative control wells to allow for data normalization and scaling. In agonist assays, negative control wells contained assay buffer and positive control wells contained […] positive control (10 nM Follicle Stimulating Hormone Sigma-Aldrich F4021, 50 nM Thyroid Stimulating Hormone Sigma-Aldrich 869006, 50 nM Luteinizing Hormone MyBioSource MBS5308806, for their respective receptors). All control wells contained DMSO at a final assay concentration that matched the test compound wells. […]
Percent control data were analyzed by non-linear regression with a sigmoidal dose response algorithm in the database to yield potency and efficacy data.

Structure (SMILES)	IC50
COc1cc2c(cc1-c1cncc(C(N)=O)c1)-c1c(c(C(=O)N3CCN(C(=O)OC(C)(C)C)C[C@@H]3C(C)C)nn1-c1cc(Cl)cc(Cl)c1)CC2 (stereo in doubt) [Compound 8-25A]	754 nM
COc1cc2c(cc1-c1ccn(C)n1)-c1c(c(C(=O)N3CCOCC3(C)C)nn1-c1cc(Cl)cc(Cl)c1)OC2 [Compound 2-05, [1-(3,5-dichlorophenyl)-7-methoxy-8-(1-methylpyrazol-3-yl)-5H-isochromeno[4,3-c]pyrazol-3-yl]-(3,3-dimethylmorpholin-4-yl)methanone]	638 nM
COc1cc2c(cc1-c1ccn(C)n1)-c1c(c(C(=O)N3CCOCC3(C)C)nn1-c1ccsc1)OC2 [Compound 2-07]	2410 nM
COc1cc2c(cc1-c1ccn(C)n1)-c1c(c(C(=O)N(C)C(C)(C)C)nn1-c1ccsc1)OC2 [Compound 2-08]	475 nM
COc1cc2c(cc1-c1ccn(C)n1)-c1c(c(C(=O)N3CCOCC3(C)C)nn1-c1cc(Cl)cc(Cl)c1)SC2 [Compound 3-03, (1-(3,5-dichlorophenyl)-7-methoxy-8-(1-methyl-1H-pyrazol-3-yl)-1,5-dihydroisothiochromeno[4,3-c]pyrazol-3-yl)(3,3-dimethylmorpholino)methanone]	325 nM
COc1cc2c(cc1-c1ccn(C)n1)-c1c(c(C(=O)N(C)C(C)(C)C)nn1-c1cc(Cl)cc(Cl)c1)SC2 [Compound 3-04, N-tert-butyl-1-(3,5-dichlorophenyl)-7-methoxy-N-methyl-8-(1-methylpyrazol-3-yl)-5H-isothiochromeno[4,3-c]pyrazole-3-carboxamide]	223 nM
COc1cc2c(cc1-c1cncc(C(N)=O)c1)-c1c(c(C(=O)N(C)C(C)(C)C)nn1-c1cc(Cl)cc(Cl)c1)[S+]([O-])C2 (stereo not shown) [Compound 3-07, N-tert-butyl-8-(5-carbamoyl-3-pyridyl)-1-(3,5-dichlorophenyl)-7-methoxy-N-methyl-4-oxo-5H-isothiochromeno[4,3-c]pyrazole-3-carboxamide]	4560 nM

Molecules with a lower IC50, results first:

IC50	Structure (SMILES)
43.4 nM	COc1cc2c(cc1-c1cncc(C(N)=O)c1)-c1c(c(C(=O)N(C)C(C)(C)C)nn1-c1cc(Cl)cc(Cl)c1)[S+]([O-])C2 (single isomer, unassigned) [Compound 3-06]
3.44 nM	COc1cc2c(cc1-c1cncc(C(N)=O)c1)-c1c(c(C(=O)N3CCOCC3(C)C)nn1-c1cc(Cl)cc(Cl)c1)OC2 [Compound 2-01, 5-[1-(3,5-dichlorophenyl)-3-(3,3-dimethylmorpholine-4-carbonyl)-7-methoxy-5H-isochromeno[4,3-c]pyrazol-8-yl]pyridine-3-carboxamide]
1.98 nM	COc1cc2c(cc1-c1cncc(C(N)=O)c1)-c1c(c(C(=O)N(C)C(C)(C)C)nn1-c1cc(Cl)cc(Cl)c1)OC2 [Compound 2-02]
22 nM	COc1cc2c(cc1-c1cncc(C(N)=O)c1)-c1c(c(C(=O)N3CCOCC3(C)C)nn1-c1ccsc1)OC2 [Compound 2-03]
7.92 nM	COc1cc2c(cc1-c1cncc(C(N)=O)c1)-c1c(c(C(=O)N(C)C(C)(C)C)nn1-c1ccsc1)OC2 [Compound 2-04]
195 nM	COc1cc2c(cc1-c1ccn(C)n1)-c1c(c(C(=O)N(C)C(C)(C)C)nn1-c1cc(Cl)cc(Cl)c1)OC2 [Compound 2-06]
6.72 nM	COc1cc2c(cc1-c1cncc(C(N)=O)c1)-c1c(c(C(=O)N3CCOCC3(C)C)nn1-c1cc(Cl)cc(Cl)c1)SC2 [Compound 3-01, 5-[1-(3,5-dichlorophenyl)-3-(3,3-dimethylmorpholine-4-carbonyl)-7-methoxy-5H-isothiochromeno[4,3-c]pyrazol-8-yl]pyridine-3-carboxamide]
3.92 nM	COc1cc2c(cc1-c1cncc(C(N)=O)c1)-c1c(c(C(=O)N(C)C(C)(C)C)nn1-c1cc(Cl)cc(Cl)c1)SC2 [Compound 3-02, N-tert-butyl-8-(5-carbamoyl-3-pyridyl)-1-(3,5-dichlorophenyl)-7-methoxy-N-methyl-5H-isothiochromeno[4,3-c]pyrazole-3-carboxamide]
55.7 nM	COc1cc2c(cc1-c1cncc(C(N)=O)c1)-c1c(c(C(=O)N3CCOCC3(C)C)nn1-c1cc(Cl)cc(Cl)c1)[S+]([O-])C2 (stereo not shown) [Compound 3-05]
